Test results reported in patent publication US20220110325A1, “PESTICIDALLY ACTIVE AZOLE-AMIDE COMPOUNDS” (SYNGENTA CROP PROTECTION AG, priority 2019, published 2022).

How the values were obtained:
Assay type in all cases: in vivo
[1] = tested on: Diabrotica balteata (corn root worm); experiment: Diabrotica balteata (corn root worm), sprayed maize sprouts; details: 96 h, application rate of 200 ppm, L2 larvae, 4 days after infestation, read-out: control in at least one of the two categories (mortality or growth inhibition)
Description: Example B2: Diabrotica Balteata (Corn Root Worm)
Maize sprouts placed onto an agar layer in 24-well microtiter plates were treated with aqueous test solutions prepared from 10,000 ppm DMSO stock solutions by spraying. After drying, the plates were infested with L2 larvae (6 to 10 per well). The samples were assessed for mortality and growth inhibition in comparison to untreated samples 4 days after infestation.

[2] = tested on: Plutella xylostella (Diamond Back Moth); experiment: Plutella xylostella (diamond back moth), artificial diet, eggs, 24-well; details: 192 h, application rate of 200 ppm, eggs on artificial diet, 8 days after infestation, read-out: control in at least one of the two categories (mortality or growth inhibition)
Description: Example B5: Plutella xylostella (Diamond Back Moth)
24-well microtiter plates with artificial diet were treated with aqueous test solutions prepared from 10,000 ppm DMSO stock solutions by pipetting. After drying, Plutella eggs were pipetted through a plastic stencil onto a gel blotting paper and the plate was closed with it. The samples were assessed for mortality and growth inhibition in comparison to untreated samples 8 days after infestation.

[3] = tested on: Spodoptera littoralis (Egyptian Cotton Leaf Worm); experiment: Spodoptera littoralis (Egyptian cotton leaf worm), sprayed cotton leaf discs; details: foliar, 72 h, application rate of 200 ppm, L1 larvae, 3 days after infestation, read-out: control in at least one of the three categories (mortality, anti-feeding, or growth inhibition)
Description: Example B10: Spodoptera littoralis (Egyptian Cotton Leaf Worm)
Cotton leaf discs were placed onto agar in 24-well microtiter plates and sprayed with aqueous test solutions prepared from 10,000 ppm DMSO stock solutions. After drying the leaf discs were infested with five L1 larvae. The samples were assessed for mortality, anti-feeding effect, and growth inhibition in comparison to untreated samples 3 days after infestation. Control of Spodoptera littoralis by a test sample is given when at least one of the categories mortality, anti-feedant effect, and growth inhibition is higher than the untreated sample.

[4] = tested on: Chilo suppressalis (Striped Rice Stemborer); experiment: Chilo suppressalis (striped rice stemborer), artificial diet; details: 144 h, application rate of 200 ppm, L2 larvae, 6 days after infestation, read-out: control in at least one of the three categories (mortality, anti-feeding or growth inhibition)
Description: Example 14: Chilo suppressalis (Striped Rice Stemborer)
24-well microtiter plates with artificial diet were treated with aqueous test solutions prepared from 10,000 ppm DMSO stock solutions by pipetting. After drying, the plates were infested with L2 larvae (6-8 per well). The samples were assessed for mortality, anti-feeding effect, and growth inhibition in comparison to untreated samples 6 days after infestation. Control of Chilo suppressalis by a test sample is given when at least one of the categories mortality, anti-feedant effect, and growth inhibition is higher than the untreated sample.

[5] = tested on: Euschistus heros (Neotropical Brown Stink Bug); experiment: Euschistus heros (neotropical brown stink bug), sprayed soybean leaves; details: 120 h, application rate of 200 ppm, N2 nymphs, 5 days after infestation, read-out: control in at least one of the two categories (mortality or growth inhibition)
Description: Example B3: Euschistus heros(Neotropical Brown Stink Bug)
Soybean leaves on agar in 24-well microtiter plates were sprayed with aqueous test solutions prepared from 10,000 ppm DMSO stock solutions. After drying the leaves were infested with N2 nymphs. The samples were assessed for mortality and growth inhibition in comparison to untreated samples 5 days after infestation.

[6] = tested on: Myzus persicae (Green Peach Aphid); experiment: Myzus persicae (green peach aphid), intrinsic activity; details: 120 h, test rate of 12 ppm, sucrose solution through Parafilm, 5 days after infestation
From the text: Example B8: Myzus persicae (Green Peach Aphid). Intrinsic Activity
Test compounds prepared from 10,000 ppm DMSO stock solutions were applied by pipette into 24-well microtiter plates and mixed with sucrose solution. The plates were closed with a stretched Parafilm. A plastic stencil with 24 holes was placed onto the plate and infested pea seedlings were placed directly on the Parafilm. The infested plate was closed with a gel blotting paper and another plastic stencil and then turned upside down. The samples were assessed for mortality 5 days after infestation.

[7] = tested on: Plutella xylostella (Diamondback Moth); experiment: Plutella xylostella (diamondback moth), 96-well artificial diet, eggs; details: 216 h, application rate of 500 ppm, eggs/L1 larvae, 9 days after infestation
Description: Example B13: Plutella xylostella (Diamondback Moth)
96-well microtiter plates containing artificial diet were treated with aqueous test solutions, prepared from 10,000 ppm DMSO stock solutions, by a liquid handling robot. After drying, eggs (˜30 per well) were infested onto a netted lid which was suspended above the diet. The eggs hatch and L1 larvae move down to the diet. The samples were assessed for mortality 9 days after infestation.

[8] = tested on: Tetranychus urticae (Two-Spotted Spider Mite); experiment: Tetranychus urticae (two-spotted spider mite), feeding/contact activity; details: 192 h
Description: Example B11: Tetranychus urticae (Two-Spotted Spider Mite):Feeding/Contact Activity
Bean leaf discs on agar in 24-well microtiter plates were sprayed with aqueous test solutions prepared from 10,000 ppm DMSO stock solutions. After drying the leaf discs were infested with a mite population of mixed ages. The samples were assessed for mortality on mixed population (mobile stages) 8 days after infestation.

CC(NC(=O)c1cc(C(F)(F)F)cc(C(F)(F)F)c1)c1ncnn1-c1ncc(OCC(F)(F)F)cn1 (stereo not drawn) [Compound P4, N-[1-[2-[5-(2,2,2-trifluoroethoxy)pyrimidin-2-yl]-1,2,4-triazol-3-yl]ethyl]-3,5-bis(trifluoromethyl) benzamide]
≥ 80%: percent control (mortality or growth inhibition) at 200 ppm [1] | percent control (mortality or growth inhibition) at 200 ppm [2] | percent control (mortality, anti-feeding or growth inhibition) at 200 ppm [3] | percent control (mortality, anti-feedant effect or growth inhibition) at 200 ppm [4]

CC(NC(=O)c1cc(C(F)(F)F)cc(C(F)(F)F)c1)c1ncnn1-c1ncc(OC(F)F)cn1 (stereo not drawn) [Compound P3, N-[1-[2-[5-(difluoromethoxy)pyrimidin-2-yl]-1,2,4-triazol-3-yl]ethyl]-3,5-bis(trifluoromethyl) benzamide]
≥ 80%: percent control (mortality or growth inhibition) at 200 ppm [1] | percent control (mortality or growth inhibition) at 200 ppm [5] | percent control (mortality or growth inhibition) at 200 ppm [2] | mortality at 12 ppm [6] | percent control (mortality, anti-feeding or growth inhibition) at 200 ppm [3] | percent control (mortality, anti-feedant effect or growth inhibition) at 200 ppm [4]

CC(NC(=O)c1cc(C(F)(F)F)cc(C(F)(F)F)c1)c1ncnn1-c1ccc(OCC(F)F)cn1 (stereo not drawn) [Compound P9, N-[1-[2-[5-(2,2-difluoroethoxy)-2-pyridyl]-1,2,4-triazol-3-yl]ethyl]-3,5-bis(trifluoromethyl) benzamide]
≥ 80%: percent control (mortality or growth inhibition) at 200 ppm [1] | percent control (mortality or growth inhibition) at 200 ppm [2] | percent control (mortality, anti-feeding or growth inhibition) at 200 ppm [3] | percent control (mortality, anti-feedant effect or growth inhibition) at 200 ppm [4]

C[C@H](NC(=O)c1cc(C(F)(F)F)cc(C(F)(F)F)c1)c1ncnn1-c1ncc(OC(F)(F)F)cn1 [Compound P7, N-[(1S)-1-[2-[5-(trifluoromethoxy)pyrimidin-2-yl]-1,2,4-triazol-3-yl]ethyl]-3,5-bis(trifluoromethyl) benzamide]
≥ 80%: percent control (mortality or growth inhibition) at 200 ppm [1] | percent control (mortality or growth inhibition) at 200 ppm [2] | percent control (mortality, anti-feeding or growth inhibition) at 200 ppm [3]

CC(NC(=O)c1cc(C(F)(F)F)cc(C(F)(F)F)c1)c1ncnn1-c1ccc(O/C=C\C(F)(F)F)cn1 (stereo not drawn) [Compound P10, 3,5-bis(trifluoromethyl)-N-[1-[2-[5-[(Z)-3,3,3-trifluoroprop-1-enoxy]-2-pyridyl]-1,2,4-triazol-3-yl]ethyl]benzamide]
≥ 80%: percent control (mortality or growth inhibition) at 200 ppm [2] | mortality at 500 ppm [7] | percent control (mortality, anti-feedant effect or growth inhibition) at 200 ppm [4]

CC(NC(=O)c1cc(C(F)(F)F)cc(C(F)(F)F)c1)c1ncnn1-c1ccc(OCC(F)(F)F)cn1 (stereo not drawn) [Compound P8, N-[1-[2-[5-(2,2,2-trifluoroethoxy)-2-pyridyl]-1,2,4-triazol-3-yl]ethyl]-3,5-bis(trifluoromethyl)benzamide]
≥ 80%: percent control (mortality or growth inhibition) at 200 ppm [1] | percent control (mortality or growth inhibition) at 200 ppm [2] | percent control (mortality, anti-feeding or growth inhibition) at 200 ppm [3] | percent control (mortality, anti-feedant effect or growth inhibition) at 200 ppm [4]

CC(NC(=O)c1cc(OCC(F)F)cc(C(F)(F)F)c1)c1ncnn1-c1ncc(OC(F)F)cn1 (stereo not drawn) [Compound P12, 3-(2,2-difluoroethoxy)-N-[1-[2-[5-(difluoromethoxy)pyrimidin-2-yl]-1,2,4-triazol-3-yl]ethyl]-5-(trifluoromethyl) benzamide]
≥ 80%: percent control (mortality or growth inhibition) at 200 ppm [2] | mortality at 12 ppm [6] | percent control (mortality, anti-feeding or growth inhibition) at 200 ppm [3] | percent control (mortality, anti-feedant effect or growth inhibition) at 200 ppm [4]

CC(NC(=O)c1cc(C(F)(F)F)cc(C(F)(F)F)c1)c1ncnn1-c1ccc(OC(F)F)cn1 (stereo not drawn) [Compound P11, N-[1-[2-[5-(difluoromethoxy)-2-pyridyl]-1,2,4-triazol-3-yl]ethyl]-3,5-bis(trifluoromethyl) benzamide]
≥ 80%: percent control (mortality or growth inhibition) at 200 ppm [1] | percent control (mortality or growth inhibition) at 200 ppm [2] | percent control (mortality, anti-feeding or growth inhibition) at 200 ppm [3] | mortality at 500 ppm [7] | percent control (mortality, anti-feedant effect or growth inhibition) at 200 ppm [4]

CC(NC(=O)c1cc(C(F)(F)F)cc(C(F)(F)F)c1)c1ncnn1-c1ccc(OC(F)(F)F)cn1 (stereo not drawn) [Compound P6, N-[1-[2-[5-(trifluoromethoxy)-2-pyridyl]-1,2,4-triazol-3-yl]ethyl]-3,5-bis(trifluoromethyl) benzamide]
≥ 80%: percent control (mortality or growth inhibition) at 200 ppm [1] | percent control (mortality or growth inhibition) at 200 ppm [5] | percent control (mortality or growth inhibition) at 200 ppm [2] | percent control (mortality, anti-feeding or growth inhibition) at 200 ppm [3] | mortality at 200 ppm [8] | mortality at 500 ppm [7] | percent control (mortality, anti-feedant effect or growth inhibition) at 200 ppm [4]

CC(NC(=O)c1cc(C(F)(F)F)cc(C(F)(F)F)c1)c1ncnn1-c1ncc(OCC(F)F)cn1 (stereo not drawn) [Compound P5, N-[1-[2-[5-(2,2-difluoroethoxy)pyrimidin-2-yl]-1,2,4-triazol-3-yl]ethyl]-3,5-bis(trifluoromethyl) benzamide]
≥ 80%: percent control (mortality or growth inhibition) at 200 ppm [1] | percent control (mortality or growth inhibition) at 200 ppm [5] | percent control (mortality or growth inhibition) at 200 ppm [2] | percent control (mortality, anti-feeding or growth inhibition) at 200 ppm [3] | percent control (mortality, anti-feedant effect or growth inhibition) at 200 ppm [4]
